Tested on: 953936-095-R-J2-PDC spheroids with HUVEC/MSC, viability
Test: Anticancer human tumor 953936-095-R-J2-PDC patient-derived cervical squamous cell carcinoma cell line growth inhibition [PI3K]
Conditions: for IC50: curve of first compound; for viability, T/C: stronger effect = lower value
Outline: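 Agents were dosed from a top concentration near clinical Cmax (otherwise 10 microM) in half-log decrements, alone or combined with PI3K inhibitors. The spheroids contain tumor cells plus endothelial (HUVEC) and MSC stroma; viability is measured.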
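Also: spheroids exposed to compounds for seven days before read-out.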

CC1(C)CCC(CN2CCN(c3ccc(C(=O)NS(=O)(=O)c4ccc(NCC5CCOCC5)c([N+](=O)[O-])c4)c(Oc4cnc5[nH]ccc5c4)c3)CC2)=C(c2ccc(Cl)cc2)C1 + CC(Nc1ccc2c(c1)OCCn1cc(N3C(=O)OCC3C(F)F)nc1-2)C(N)=O
IC50 (second compound 0.00316 µM): 6.92 µM | IC50 (second compound 0.01 µM): 8.42 µM | IC50 (second compound 0.0316 µM): 8.12 µM | IC50 (second compound 0.1 µM): > 10 µM | IC50 (second compound 0.316 µM): < 0.0316 µM | IC50 (second compound 1 µM): < 0.0316 µM | viability, T/C (second compound 0.00316 µM, first compound 0.0316 µM): 88.4% | viability, T/C (second compound 0.00316 µM, first compound 0.1 µM): 89.8% | viability, T/C (second compound 0.00316 µM, first compound 0.316 µM): 90.4% | viability, T/C (second compound 0.00316 µM, first compound 1 µM): 100% | viability, T/C (second compound 0.00316 µM, first compound 3.16 µM): 142% | viability, T/C (second compound 0.00316 µM, first compound 10 µM): 25.5% | viability, T/C (second compound 0.01 µM, first compound 0.0316 µM): 90.2% | viability, T/C (second compound 0.01 µM, first compound 0.1 µM): 88.9% | viability, T/C (second compound 0.01 µM, first compound 0.316 µM): 92.3% | viability, T/C (second compound 0.01 µM, first compound 1 µM): 93.6% | viability, T/C (second compound 0.01 µM, first compound 3.16 µM): 115% | viability, T/C (second compound 0.01 µM, first compound 10 µM): 41.9% | viability, T/C (second compound 0.0316 µM, first compound 0.0316 µM): 77% | viability, T/C (second compound 0.0316 µM, first compound 0.1 µM): 74.6% | viability, T/C (second compound 0.0316 µM, first compound 0.316 µM): 75.8% | viability, T/C (second compound 0.0316 µM, first compound 1 µM): 75.8% | viability, T/C (second compound 0.0316 µM, first compound 3.16 µM): 85% | viability, T/C (second compound 0.0316 µM, first compound 10 µM): 44% | viability, T/C (second compound 0.1 µM, first compound 0.0316 µM): 57.7% | viability, T/C (second compound 0.1 µM, first compound 0.1 µM): 53% | viability, T/C (second compound 0.1 µM, first compound 0.316 µM): 53.1% | viability, T/C (second compound 0.1 µM, first compound 1 µM): 59.4% | viability, T/C (second compound 0.1 µM, first compound 3.16 µM): 59.5% | viability, T/C (second compound 0.1 µM, first compound 10 µM): 48.3% | viability, T/C (second compound 0.316 µM, first compound 0.0316 µM): 35.7% | viability, T/C (second compound 0.316 µM, first compound 0.1 µM): 36% | viability, T/C (second compound 0.316 µM, first compound 0.316 µM): 33.5% | viability, T/C (second compound 0.316 µM, first compound 1 µM): 31.8% | viability, T/C (second compound 0.316 µM, first compound 3.16 µM): 32.5% | viability, T/C (second compound 0.316 µM, first compound 10 µM): 36.9% | viability, T/C (second compound 1 µM, first compound 0.0316 µM): 22.3% | viability, T/C (second compound 1 µM, first compound 0.1 µM): 24.4% | viability, T/C (second compound 1 µM, first compound 0.316 µM): 21.2% | viability, T/C (second compound 1 µM, first compound 1 µM): 22.1% | viability, T/C (second compound 1 µM, first compound 3.16 µM): 22.1% | viability, T/C (second compound 1 µM, first compound 10 µM): 21.7%
